# In paper PMC6858927 (Investigational new drugs, 2019):
# Where two headings read alike, the source gives them in different places.
# [1] = Cohort B Dose 2: 400mg, Decitabine (n=2), grade 3+
# [2] = Cohort B dose 1: 200mg, Decitabine (n=6), Total
# [3] = Cohort B dose 1: 200mg, Decitabine (n=6), grade 1&2
# [4] = Cohort B dose 1: 200mg, Decitabine (n=6), grade 3+
smiles,measurement,setting,value
"C1=C/COCc2cc(ccc2OCCN2CCCC2)Nc2nccc(n2)-c2cccc(c2)COC/1 [Pacritinib, 11-(2-pyrrolidin-1-yl-ethoxy)-14,19-dioxa-5,7,26-triaza-tetracyclo[19.3.1.1(2,6). 1(8,12)]heptacosa-1(25),2(26),3,5,8,10,12(27),16,21,23-decaene]","HYPERTENSION, patients (%)",[1],0
same,"HYPOALBUMINEMIA, patients (%)",[1],0
same,"HYPOKALEMIA, patients (%)",[1],1 (50)
same,"HYPOPHOSPHATEMIA, patients (%)",[1],0
same,"HYPOXIA, patients (%)",[1],0
same,"LUNG INFECTION, patients (%)",[1],0
same,"LYMPHOCYTE COUNT DECREASED, patients (%)",[1],1 (50)
same,"MUCOSITIS ORAL, patients (%)",[1],0
same,"NAUSEA, patients (%)",[1],1 (50)
same,"NEUTROPHIL COUNT DECREASED, patients (%)",[1],1 (50)
same,"PLATELET COUNT DECREASED, patients (%)",[1],1 (50)
same,"PLEURAL EFFUSION, patients (%)",[1],0
same,"PRURITUS, patients (%)",[1],0
same,"RASH MACULO-PAPULAR, patients (%)",[1],0
same,"RASH, patients (%)",[1],0
same,"RESPIRATORY FAILURE, patients (%)",[1],0
same,"VOMITING, patients (%)",[1],0
same,"WHITE BLOOD CELL DECREASED, patients (%)",[1],1 (50)
same,"ACTIVATED PARTIAL THROMBOPLASTIN TIME PROLONGED, patients (%)",[2],1 (16.7)
same,"ANEMIA, patients (%)",[2],6 (100)
same,"ANOREXIA, patients (%)",[2],2 (33.3)
same,"CONSTIPATION, patients (%)",[2],1 (16.7)
same,"DIARRHEA, patients (%)",[2],1 (16.7)
same,"DYSPNEA, patients (%)",[2],0
same,"EDEMA LIMBS, patients (%)",[2],1 (16.7)
same,"ELECTROCARDIOGRAM QT CORRECTED INTERVAL PROLONGED, patients (%)",[2],2 (33.3)
same,"FATIGUE, patients (%)",[2],2 (33.3)
same,"FEBRILE NEUTROPENIA, patients (%)",[2],1 (16.7)
same,"HYPERGLYCEMIA, patients (%)",[2],1 (16.7)
same,"HYPERTENSION, patients (%)",[2],0
same,"HYPOALBUMINEMIA, patients (%)",[2],1 (16.7)
same,"HYPOKALEMIA, patients (%)",[2],2 (33.3)
same,"HYPOPHOSPHATEMIA, patients (%)",[2],1 (16.7)
same,"HYPOXIA, patients (%)",[2],0
same,"LUNG INFECTION, patients (%)",[2],1 (16.7)
same,"LYMPHOCYTE COUNT DECREASED, patients (%)",[2],3 (50)
same,"MUCOSITIS ORAL, patients (%)",[2],2 (33.3)
same,"NAUSEA, patients (%)",[2],3 (50)
same,"NEUTROPHIL COUNT DECREASED, patients (%)",[2],3 (50)
same,"PLATELET COUNT DECREASED, patients (%)",[2],5 (83.3)
same,"PLEURAL EFFUSION, patients (%)",[2],1 (16.7)
same,"PRURITUS, patients (%)",[2],0
same,"RASH MACULO-PAPULAR, patients (%)",[2],0
same,"RASH, patients (%)",[2],1 (16.7)
same,"RESPIRATORY FAILURE, patients (%)",[2],1 (16.7)
same,"VOMITING, patients (%)",[2],2 (33.3)
same,"WHITE BLOOD CELL DECREASED, patients (%)",[2],3 (50)
same,"ACTIVATED PARTIAL THROMBOPLASTIN TIME PROLONGED, patients (%)",[3],1 (16.7)
same,"ANEMIA, patients (%)",[3],1 (16.7)
same,"ANOREXIA, patients (%)",[3],2 (33.3)
same,"CONSTIPATION, patients (%)",[3],1 (16.7)
same,"DIARRHEA, patients (%)",[3],1 (16.7)
same,"DYSPNEA, patients (%)",[3],0
same,"EDEMA LIMBS, patients (%)",[3],1 (16.7)
same,"ELECTROCARDIOGRAM QT CORRECTED INTERVAL PROLONGED, patients (%)",[3],1 (16.7)
same,"FATIGUE, patients (%)",[3],2 (33.3)
same,"FEBRILE NEUTROPENIA, patients (%)",[3],0
same,"HYPERGLYCEMIA, patients (%)",[3],1 (16.7)
same,"HYPERTENSION, patients (%)",[3],0
same,"HYPOALBUMINEMIA, patients (%)",[3],1 (16.7)
same,"HYPOKALEMIA, patients (%)",[3],2 (33.3)
same,"HYPOPHOSPHATEMIA, patients (%)",[3],0
same,"HYPOXIA, patients (%)",[3],0
same,"LUNG INFECTION, patients (%)",[3],0
same,"LYMPHOCYTE COUNT DECREASED, patients (%)",[3],1 (16.7)
same,"MUCOSITIS ORAL, patients (%)",[3],1 (16.7)
same,"NAUSEA, patients (%)",[3],3 (50)
same,"NEUTROPHIL COUNT DECREASED, patients (%)",[3],0
same,"PLATELET COUNT DECREASED, patients (%)",[3],0
same,"PLEURAL EFFUSION, patients (%)",[3],1 (16.7)
same,"PRURITUS, patients (%)",[3],0
same,"RASH MACULO-PAPULAR, patients (%)",[3],0
same,"RASH, patients (%)",[3],1 (16.7)
same,"RESPIRATORY FAILURE, patients (%)",[3],0
same,"VOMITING, patients (%)",[3],2 (33.3)
same,"WHITE BLOOD CELL DECREASED, patients (%)",[3],0
same,"ACTIVATED PARTIAL THROMBOPLASTIN TIME PROLONGED, patients (%)",[4],0
same,"ANEMIA, patients (%)",[4],5 (83.3)
same,"ANOREXIA, patients (%)",[4],0
same,"CONSTIPATION, patients (%)",[4],0
same,"DIARRHEA, patients (%)",[4],0
same,"DYSPNEA, patients (%)",[4],0
same,"EDEMA LIMBS, patients (%)",[4],0
same,"ELECTROCARDIOGRAM QT CORRECTED INTERVAL PROLONGED, patients (%)",[4],1 (16.7)
same,"FATIGUE, patients (%)",[4],0
same,"FEBRILE NEUTROPENIA, patients (%)",[4],1 (16.7)
same,"HYPERGLYCEMIA, patients (%)",[4],0
same,"HYPERTENSION, patients (%)",[4],0
same,"HYPOALBUMINEMIA, patients (%)",[4],0
same,"HYPOKALEMIA, patients (%)",[4],0
same,"HYPOPHOSPHATEMIA, patients (%)",[4],1 (16.7)
same,"HYPOXIA, patients (%)",[4],0
same,"LUNG INFECTION, patients (%)",[4],1 (16.7)
same,"LYMPHOCYTE COUNT DECREASED, patients (%)",[4],2 (33.3)
same,"MUCOSITIS ORAL, patients (%)",[4],1 (16.7)
same,"NAUSEA, patients (%)",[4],0
same,"NEUTROPHIL COUNT DECREASED, patients (%)",[4],3 (50)
same,"PLATELET COUNT DECREASED, patients (%)",[4],5 (83.3)
same,"PLEURAL EFFUSION, patients (%)",[4],0
same,"PRURITUS, patients (%)",[4],0
same,"RASH MACULO-PAPULAR, patients (%)",[4],0
same,"RASH, patients (%)",[4],0
same,"RESPIRATORY FAILURE, patients (%)",[4],1 (16.7)
same,"VOMITING, patients (%)",[4],0
same,"WHITE BLOOD CELL DECREASED, patients (%)",[4],3 (50)
same,"ACTIVATED PARTIAL THROMBOPLASTIN TIME PROLONGED, patients (%)","Overall (n=13), Total",2 (15.4)
same,"ANEMIA, patients (%)","Overall (n=13), Total",11 (84.6)
same,"ANOREXIA, patients (%)","Overall (n=13), Total",2 (15.4)
same,"CONSTIPATION, patients (%)","Overall (n=13), Total",2 (15.4)
same,"DIARRHEA, patients (%)","Overall (n=13), Total",4 (30.8)
same,"DYSPNEA, patients (%)","Overall (n=13), Total",2 (15.4)
same,"EDEMA LIMBS, patients (%)","Overall (n=13), Total",2 (15.4)
same,"ELECTROCARDIOGRAM QT CORRECTED INTERVAL PROLONGED, patients (%)","Overall (n=13), Total",6 (46.2)
same,"FATIGUE, patients (%)","Overall (n=13), Total",5 (38.5)
same,"HYPERTENSION, patients (%)","Overall (n=13), Total",3 (23.1)
same,"HYPOKALEMIA, patients (%)","Overall (n=13), Total",4 (30.8)
same,"LUNG INFECTION, patients (%)","Overall (n=13), Total",2 (15.4)
same,"LYMPHOCYTE COUNT DECREASED, patients (%)","Overall (n=13), Total",7 (53.8)
same,"MUCOSITIS ORAL, patients (%)","Overall (n=13), Total",4 (30.8)
same,"NAUSEA, patients (%)","Overall (n=13), Total",7 (53.8)
same,"RASH MACULO-PAPULAR, patients (%)","Overall (n=13), Total",2 (15.4)
same,"ACTIVATED PARTIAL THROMBOPLASTIN TIME PROLONGED, patients (%)","Overall (n=13), grade 1&2",2 (15.4)
same,"ANEMIA, patients (%)","Overall (n=13), grade 1&2",2 (15.4)
same,"ANOREXIA, patients (%)","Overall (n=13), grade 1&2",2 (15.4)
same,"CONSTIPATION, patients (%)","Overall (n=13), grade 1&2",2 (15.4)
same,"DIARRHEA, patients (%)","Overall (n=13), grade 1&2",4 (30.8)
same,"DYSPNEA, patients (%)","Overall (n=13), grade 1&2",2 (15.4)
same,"EDEMA LIMBS, patients (%)","Overall (n=13), grade 1&2",2 (15.4)
same,"ELECTROCARDIOGRAM QT CORRECTED INTERVAL PROLONGED, patients (%)","Overall (n=13), grade 1&2",5 (38.5)
same,"FATIGUE, patients (%)","Overall (n=13), grade 1&2",5 (38.5)
same,"LUNG INFECTION, patients (%)","Overall (n=13), grade 1&2",0
same,"LUNG INFECTION, patients (%)","Overall (n=13), grade 3+",2 (15.4)
same,"ACTIVATED PARTIAL THROMBOPLASTIN TIME PROLONGED, patients (%)","human, in vivo",0
same,"ANEMIA, patients (%)","human, in vivo",9 (69.2)
same,"ANOREXIA, patients (%)","human, in vivo",0
same,"CONSTIPATION, patients (%)","human, in vivo",0
same,"DIARRHEA, patients (%)","human, in vivo",0
same,"DYSPNEA, patients (%)","human, in vivo",0
same,"EDEMA LIMBS, patients (%)","human, in vivo",0
same,"ELECTROCARDIOGRAM QT CORRECTED INTERVAL PROLONGED, patients (%)","human, in vivo",1 (7.7)
same,"FATIGUE, patients (%)","human, in vivo",0
same,"RASH MACULO-PAPULAR, patients (%)","human, in vivo",1 (7.7)
